Laboratory results reported in ChEMBL document CHEMBL1201862, “PubChem BioAssay data set” (2004).
Several values for one entry are separate records, joined by “and”; a condition that tells them apart may be missing. Identical values can stand only once.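 Step 1: Grow cells in 96-well plates. Step 2: Expose to compound for 48 hours at 5 concentrations. Step 3: Interpolate endpoints linearly; if unreached, use highest concentration. GI50 is the concentration that inhibits growth by half.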 Activity calls are given as the source filed them. No stated cut-off is given here; in the data, active = GI50 up to about 1.1 µM and inactive = higher.

Key:
Assay in all cases: NCI-60 cell line screen, 48 h
UO-31 = test system: UO-31
CAKI-1 = test system: CAKI-1
HOP-92 = test system: HOP-92
OVCAR-4 = test system: OVCAR-4
786-0 = test system: 786-0
A498 = test system: A498
A549 = test system: A549
ACHN = test system: ACHN
COLO 205 = test system: COLO 205
DU-145 = test system: DU-145
EKVX = test system: EKVX
HCC 2998 = test system: HCC 2998
HCT-116 = test system: HCT-116
HCT-15 = test system: HCT-15
HL-60 = test system: HL-60
HOP-62 = test system: HOP-62
HT-29 = test system: HT-29
Hs-578T = test system: Hs-578T
IGROV-1 = test system: IGROV-1
K562 = test system: K562
KM12 = test system: KM12
LOX IMVI = test system: LOX IMVI
M14 = test system: M14
MCF7 = test system: MCF7
MDA-MB-231 = test system: MDA-MB-231
MDA-MB-435 = test system: MDA-MB-435
MDA-N = test system: MDA-N
MOLT-4 = test system: MOLT-4
Malme-3M = test system: Malme-3M
NCI-H23 = test system: NCI-H23
NCI-H522 = test system: NCI-H522
NCI/ADR-RES = test system: NCI/ADR-RES
OVCAR-3 = test system: OVCAR-3
OVCAR-5 = test system: OVCAR-5
OVCAR-8 = test system: OVCAR-8
PC-3 = test system: PC-3
RPMI-8226 = test system: RPMI-8226
RXF 393 = test system: RXF 393
SF-268 = test system: SF-268
SF-295 = test system: SF-295
SF-539 = test system: SF-539
SK-MEL-28 = test system: SK-MEL-28
SK-MEL-2 = test system: SK-MEL-2
SK-MEL-5 = test system: SK-MEL-5
SK-OV-3 = test system: SK-OV-3
SN12C = test system: SN12C
SNB-75 = test system: SNB-75
T47D = test system: T47D
U-251 = test system: U-251
UACC-257 = test system: UACC-257
UACC-62 = test system: UACC-62
NCI-H460 = test system: NCI-H460
SNB-19 = test system: SNB-19
SR = test system: SR
SW-620 = test system: SW-620
TK-10 = test system: TK-10
CCRF-CEM = test system: CCRF-CEM
NCI-H226 = test system: NCI-H226

SMILES: COc1ccc(-c2cc(-c3ccccc3)c(C#N)c(=O)n2C2OC(COC(C)=O)C(OC(C)=O)C(OC(C)=O)C2OC(C)=O)cc1 (stereo unspecified)
- GI50 (UO-31): 67.6 µM (inactive) and 42.4 µM (inactive)

SMILES: CC(=O)OCC1OC(n2c(=S)n(-c3ccccc3)c(=O)c3ccccc32)C(OC(C)=O)C(OC(C)=O)C1OC(C)=O (stereo unspecified)
- GI50 (CAKI-1): 91.8 µM (inactive) and 83.4 µM (inactive)
- GI50 (HOP-92): 47.8 µM (inactive) and 33.6 µM (inactive)
- GI50 (OVCAR-4): 55.8 µM (inactive) and 48.1 µM (inactive)

SMILES: O=C1C=CC(=O)c2c(O)nc(CBr)nc21
- GI50 (786-0): > 100 µM (inactive)
- GI50 (A498): 82.6 µM (inactive)
- GI50 (A549): > 100 µM (inactive)
- GI50 (ACHN): > 100 µM (inactive)
- GI50 (CAKI-1): > 100 µM (inactive)
- GI50 (COLO 205): > 100 µM (inactive)
- GI50 (DU-145): > 100 µM (inactive)
- GI50 (EKVX): > 100 µM (inactive)
- GI50 (HCC 2998): > 100 µM (inactive)
- GI50 (HCT-116): 56.8 µM (inactive)
- GI50 (HCT-15): > 100 µM
- GI50 (HL-60): 14.9 µM (inactive)
- GI50 (HOP-62): > 100 µM (inactive)
- GI50 (HT-29): 60.5 µM (inactive)
- GI50 (Hs-578T): > 100 µM (inactive)
- GI50 (IGROV-1): > 100 µM (inactive)
- GI50 (K562): 94.4 µM (inactive)
- GI50 (KM12): 52 µM (inactive)
- GI50 (LOX IMVI): > 100 µM (inactive)
- GI50 (M14): 61.5 µM (inactive)
- GI50 (MCF7): 56.2 µM (inactive)
- GI50 (MDA-MB-231): 61 µM (inactive)
- GI50 (MDA-MB-435): 30.4 µM (inactive)
- GI50 (MDA-N): 36.1 µM (inactive)
- GI50 (MOLT-4): > 100 µM (inactive)
- GI50 (Malme-3M): > 100 µM (inactive)
- GI50 (NCI-H23): 80.5 µM (inactive)
- GI50 (NCI-H522): > 100 µM (inactive)
- GI50 (NCI/ADR-RES): > 100 µM (inactive)
- GI50 (OVCAR-3): > 100 µM (inactive)
- GI50 (OVCAR-4): > 100 µM (inactive)
- GI50 (OVCAR-5): > 100 µM (inactive)
- GI50 (OVCAR-8): > 100 µM (inactive)
- GI50 (PC-3): 42.2 µM (inactive)
- GI50 (RPMI-8226): 97.9 µM (inactive)
- GI50 (RXF 393): > 100 µM (inactive)
- GI50 (SF-268): > 100 µM (inactive)
- GI50 (SF-295): 68.9 µM (inactive)
- GI50 (SF-539): > 100 µM (inactive)
- GI50 (SK-MEL-28): > 100 µM (inactive)
- GI50 (SK-MEL-2): > 100 µM (inactive)
- GI50 (SK-MEL-5): 44.9 µM (inactive)
- GI50 (SK-OV-3): > 100 µM (inactive)
- GI50 (SN12C): 38.5 µM (inactive)
- GI50 (SNB-75): > 100 µM (inactive)
- GI50 (T47D): > 100 µM (inactive)
- GI50 (U-251): 95.9 µM (inactive)
- GI50 (UACC-257): > 100 µM (inactive)
- GI50 (UACC-62): 46.5 µM (inactive)
- GI50 (UO-31): > 100 µM (inactive)

SMILES: C=C1C(=O)OC2CC1C(OC(C)=O)C/C(C)=C/CC/C(C)=C\CCC2(C)O (stereo unspecified)
- GI50 (786-0): 3.24 µM (inactive) and 2.6 µM (inactive)
- GI50 (A498): 5.22 µM (inactive) and 5.52 µM (inactive)
- GI50 (A549): 16 µM (inactive) and 17.2 µM (inactive)
- GI50 (ACHN): 4.23 µM (inactive) and 2.37 µM (inactive)
- GI50 (CAKI-1): 4.34 µM (inactive) and 2.96 µM (inactive)
- GI50 (COLO 205): 3.98 µM (inactive) and 3.92 µM (inactive)
- GI50 (DU-145): 3.95 µM (inactive) and 5.77 µM (inactive)
- GI50 (EKVX): 3.81 µM (inactive) and 3.73 µM (inactive)
- GI50 (HCC 2998): 7.69 µM (inactive) and 4.74 µM (inactive)
- GI50 (HCT-116): 2.08 µM (inactive) and 2.91 µM (inactive)
- GI50 (HCT-15): 1.56 µM and 3.04 µM
- GI50 (HL-60): 1.23 µM (inactive) and 655 nM (active)
- GI50 (HOP-62): 15.3 µM (inactive) and 13.6 µM (inactive)
- GI50 (HOP-92): 3.65 µM (inactive) and 2.89 µM (inactive)
- GI50 (Hs-578T): 5.87 µM (inactive) and 3.79 µM (inactive)
- GI50 (K562): 1.39 µM (inactive) and 2.54 µM (inactive)
- GI50 (LOX IMVI): 2.46 µM (inactive) and 2.14 µM (inactive)
- GI50 (M14): 5.83 µM (inactive) and 6.1 µM (inactive)
- GI50 (MCF7): 3.8 µM (inactive) and 3.74 µM (inactive)
- GI50 (MDA-MB-231): 7.13 µM (inactive) and 8.95 µM (inactive)
- GI50 (MDA-MB-435): 4.19 µM (inactive) and 4.68 µM (inactive)
- GI50 (MDA-N): 2.92 µM (inactive) and 4.09 µM (inactive)
- GI50 (MOLT-4): 2.22 µM (inactive) and 1.88 µM (inactive)
- GI50 (Malme-3M): 3.25 µM (inactive)
- GI50 (NCI-H460): 2.11 µM (inactive) and 3.41 µM (inactive)
- GI50 (NCI-H522): 1.44 µM (inactive) and 1.36 µM (inactive)
- GI50 (NCI/ADR-RES): 3.66 µM (inactive) and 3.49 µM (inactive)
- GI50 (OVCAR-3): 5.93 µM (inactive) and 4.35 µM (inactive)
- GI50 (OVCAR-4): 6.35 µM (inactive) and 5.73 µM (inactive)
- GI50 (OVCAR-5): 10.9 µM (inactive) and 16.5 µM (inactive)
- GI50 (OVCAR-8): 3.36 µM (inactive) and 3.17 µM (inactive)
- GI50 (RPMI-8226): 1.9 µM (inactive) and 1.82 µM (inactive)
- GI50 (RXF 393): 3.67 µM (inactive)
- GI50 (SF-268): 5.24 µM (inactive) and 5.45 µM (inactive)
- GI50 (SF-295): 21.3 µM (inactive) and 17.2 µM (inactive)
- GI50 (SF-539): 3.48 µM (inactive) and 5.43 µM (inactive)
- GI50 (SK-MEL-28): 3.19 µM (inactive) and 2.95 µM (inactive)
- GI50 (SK-OV-3): 19.5 µM (inactive) and 24.5 µM (inactive)
- GI50 (SN12C): 4.55 µM (inactive) and 3.09 µM (inactive)
- GI50 (SNB-19): 17.3 µM (inactive) and 15.1 µM (inactive)
- GI50 (SNB-75): 11.2 µM (inactive) and 10.8 µM (inactive)
- GI50 (SR): 1.29 µM (inactive)
- GI50 (SW-620): 2.64 µM (inactive) and 3.4 µM (inactive)
- GI50 (T47D): 3.4 µM (inactive) and 4.56 µM (inactive)
- GI50 (TK-10): 4.37 µM (inactive) and 3.66 µM (inactive)
- GI50 (U-251): 10.7 µM (inactive) and 10.3 µM (inactive)
- GI50 (UACC-257): 3.03 µM (inactive) and 5.11 µM (inactive)
- GI50 (UO-31): 3.24 µM (inactive) and 6.12 µM (inactive)

SMILES: CC(=O)OC(C)(C)/C(C)=C/C(=O)O[C@H]1C(=O)O[C@@H]2C[C@H]3[C@H](C)C(=O)C(O[C@@H]4O[C@H](CO)[C@@H](O)[C@H](O)[C@H]4O)=C[C@]3(C)[C@H]3[C@@H](O)[C@H](O)[C@@]4(C(=O)O)OC[C@]32[C@@H]14 [Bruceoside-F]
- GI50 (LOX IMVI): 81.3 µM (inactive)
- GI50 (SK-MEL-28): 79.3 µM (inactive)
- GI50 (SK-MEL-5): > 10 µM (inactive)
- GI50 (U-251): 87.3 µM (inactive)

SMILES: Nc1nc(N)c2ncn(-c3ccccc3)c2n1
- GI50 (786-0): > 100 µM (inactive)
- GI50 (A498): 60.4 µM (inactive)
- GI50 (A549): 43.6 µM (inactive)
- GI50 (CAKI-1): 66.2 µM (inactive)
- GI50 (CCRF-CEM): 24.9 µM (inactive)
- GI50 (COLO 205): > 100 µM (inactive)
- GI50 (HCC 2998): 56.1 µM (inactive)
- GI50 (HOP-62): > 100 µM (inactive)
- GI50 (Hs-578T): 71 µM (inactive)
- GI50 (IGROV-1): 47.2 µM (inactive)
- GI50 (KM12): 26.4 µM (inactive)
- GI50 (LOX IMVI): > 100 µM (inactive)
- GI50 (MCF7): 69.7 µM (inactive)
- GI50 (MDA-MB-231): 64.9 µM (inactive)
- GI50 (MDA-N): > 100 µM (inactive)
- GI50 (MOLT-4): 38.7 µM (inactive)
- GI50 (Malme-3M): > 100 µM (inactive)
- GI50 (NCI-H226): > 100 µM (inactive)
- GI50 (RPMI-8226): > 100 µM (inactive)
- GI50 (RXF 393): 44.3 µM (inactive)
- GI50 (SK-MEL-2): 73.3 µM (inactive)
- GI50 (SK-MEL-5): > 100 µM (inactive)
- GI50 (SN12C): 93.3 µM (inactive)
- GI50 (SNB-19): > 100 µM (inactive)
- GI50 (SW-620): > 100 µM (inactive)
- GI50 (TK-10): 54.2 µM (inactive)
- GI50 (U-251): > 100 µM (inactive)
- GI50 (UACC-257): > 100 µM (inactive)
- GI50 (UACC-62): 41.5 µM (inactive)
- GI50 (UO-31): 36.9 µM (inactive)
